Reference: US20060211760A1, “Indolamide derivatives which possess glycogen phosphorylase inhibitory activity” (AstraZeneca AB, priority 2003, published 2006)

What was measured:
[1] = tested on: db/db and ob/ob mice; details: db/db and ob/ob mice following treatment; cited from earlier work
[2] = tested on: hepatocytes; details: cited from earlier work
[3] = tested on: conscious dogs; details: following a glucagon challenge; cited from earlier work
[4] = molecular target: T1, Human recombinant liver glycogen phosphorylase a (hrl GPa) (Homo sapiens, UniProt P06737); assay: glycogen phosphorylase inhibition, multienzyme coupled assay of glucose-1-phosphate production from glycogen; format: biochemical; details: hrl GPa 20 nM, 6 hours at 30° C., 1% DMSO
T1 sequence (P06737 1-847): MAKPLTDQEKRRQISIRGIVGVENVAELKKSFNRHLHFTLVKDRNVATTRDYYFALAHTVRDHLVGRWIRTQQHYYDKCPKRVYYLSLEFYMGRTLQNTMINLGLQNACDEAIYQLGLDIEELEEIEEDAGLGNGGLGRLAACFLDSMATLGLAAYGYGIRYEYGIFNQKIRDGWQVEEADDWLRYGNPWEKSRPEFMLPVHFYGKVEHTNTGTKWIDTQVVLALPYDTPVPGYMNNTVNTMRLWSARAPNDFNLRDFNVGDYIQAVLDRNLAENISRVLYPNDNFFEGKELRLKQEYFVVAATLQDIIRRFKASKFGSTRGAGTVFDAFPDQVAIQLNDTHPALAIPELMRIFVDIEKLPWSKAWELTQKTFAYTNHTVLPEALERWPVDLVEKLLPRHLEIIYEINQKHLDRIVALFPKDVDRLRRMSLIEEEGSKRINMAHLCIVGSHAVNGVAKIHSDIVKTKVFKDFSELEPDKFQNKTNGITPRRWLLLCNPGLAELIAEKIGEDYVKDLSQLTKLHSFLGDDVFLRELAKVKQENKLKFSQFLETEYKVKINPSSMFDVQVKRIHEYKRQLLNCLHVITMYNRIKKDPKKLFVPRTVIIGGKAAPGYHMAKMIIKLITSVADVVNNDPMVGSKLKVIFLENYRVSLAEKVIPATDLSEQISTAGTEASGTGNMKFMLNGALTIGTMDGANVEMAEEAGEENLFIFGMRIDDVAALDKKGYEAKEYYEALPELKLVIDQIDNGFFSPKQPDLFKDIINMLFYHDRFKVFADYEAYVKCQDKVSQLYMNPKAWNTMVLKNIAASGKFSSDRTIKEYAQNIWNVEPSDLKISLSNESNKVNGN
Procedure: The activity of the compounds is determined by measuring the inhibitory effect of the compounds on glycogen degradation, the production of glucose-1-phosphate from glycogen is monitored by the multienzyme coupled assay, as described in EP 0 846 464 A2, general method of Pesce et al (Pesce, M A, Bodourian, S H, Harris, R C, and Nicholson, J F (1977) Clinical Chemistry 23, […]). The reactions were in 384well microplate format in a volume of 50 μl. The change in fluorescence due to the conversion of the co-factor NAD to NADH is measured at 340 nm excitation, 465nm emission in a Tecan Ultra Multifunctional Microplate Reader. The reaction is in 50 mM HEPES, 3.5 mM KH2PO4, 2.5 mM MgCl2, 2.5 mM ethylene glycol-bis(b-aminoethyl ether) N,N,N′,N′-tetraacetic acid, 100 mM KCl, 8 mM D-(+)-glucose pH7.2, containing 0.5 mM dithiothreitol, the assay buffer solution. Human recombinant liver glycogen phosphorylase a (hrl GPa) 20 nM is pre-incubated in assay buffer solution with 6.25 mM NAD, 1.25 mg type m glycogen at 1.25 mg ml^−1 the reagent buffer, for 30 minutes. […] The non-inhibited activity of GPa is measured in the presence of 10 μl 5% DMSO in assay buffer solution and maximum inhibition measured in the presence of 5 mgs ml^−1 N-ethylmaleimide. […] Relative Fluoresence Units (RFUs) are measured at 340 nm excitation, 465 nm emission. […]

Compound	plasma glucose concentration [1]	glucagon stimulated glycogenolysis [2]	glucose output [2]	arterial plasma glucose [3]	hepatic glucose output [3]	IC50 [4] [nM]
CN(C)C(=O)[C@H](O)[C@H](Cc1ccccc1)NC(=O)c1cc2cc(Cl)ccc2[nH]1 [CP91149]	reduced, in a dose related manner	reduce	reduce	–	–	–
CCN1C(C)=C(C(=O)OC(C)C)C(c2ccccc2Cl)C2=C1COC2=O (stereo not drawn) [Bay R 3401]	–	–	–	reduced significantly	reduced significantly	–
O=C(N[C@@H]1Cc2ccccc2[C@H]1CO)c1cc2cc(Cl)ccc2[nH]1 [Example 2, 5-Chloro-N-[(1R,2R)-1-(hydroxymethyl)-2,3-dihydro-1H-inden-2-yl]-indole-2-carboxamide]	–	–	–	–	–	868
O=C(N[C@@H](Cc1ccc(F)cc1)C(=O)N1CCC(O)CC1)c1cc2cc(Cl)ccc2[nH]1 [CP320626]	reduced, in a dose related manner	reduce	reduce	–	–	–
